Measured values published in patent US7795291B2, “Substituted acid derivatives useful as anti-atherosclerotic, anti-dyslipidemic, anti-diabetic and anti-obesity agents and method” (Bristol-Myers Squibb Company, priority 2006, dated 2010).

Experiments:
high fat-fed hamster = test: High fat-fed hamster model: plasma triglyceride and cholesterol levels; format: in vivo, Golden Syrian Hamster (Mesocricetus auratus); conditions: 10 mg/kg orally dosed once daily for 14 days; high fat-fed male hamsters, fasted overnight
Experimental: It is known by one skilled in the art that the compounds of the present invention decrease plasma triglycerides and cholesterol levels at doses ≧10 mg/kg in rodent models of atherosclerosis and dyslipidemia (e.g. the high fat-fed hamster model). The typical administration of said compounds is expected to be between 0.1 to 2,000 mg/day in the clinical setting, and is preferably between 0.5 to 100 mg/day. (Reference for high fat-fed hamster model as an in vivo rodent model for anti-atheroslerosis efficacy: P-R Wang et al., Eur. Journ. of Pharm., 2001, 427, 285-293).
Male Golden Syrian Hamster (Mesocricetus auratus), 7-10 weeks of age and weighing 110-120 grams, were put on a high fat diet (D11953) for two weeks. The high fat diet was formulated by Research Diets, Inc, New Brunswick, N.J. using Purina 5001 as the base diet. Final composition (% by weight) of the diet is: 11.5% coconut oil, 11.5% corn oil, 0.5% cholesterol and 5% fructose. […] Plasma samples were obtained from hamsters fasted overnight (18 hours after last administration of compound) on day 22. The plasma triglyceride and cholesterol levels were determined and the percentage reductions in both parameters of drug-treated animals relative to vehicle-treated animals are shown in Table 2 below.

human PPARγ receptor = molecular target: T1, human PPARγ receptor (Homo sapiens, UniProt P37231); test: GAL4-hPPARγ-LBD functional transactivation (luciferase) assay in HEK293 cells; format: cell-based; conditions: for Emax: HEK293, maximum activity vs maximal activity of 1 μM rosiglitazone, read-out: PPARγ % efficacy
T1 construct: transiently transfecting GAL4-hPPARα-LBD or GAL4-hPPARγ-LBD constructs; GAL4 (fusion partner); expressed in transfected cells; host or cells: HEK293 cells stably expressing 5×GAL4RE-Luciferase
T1 sequence (P37231 238-503 limits assumed): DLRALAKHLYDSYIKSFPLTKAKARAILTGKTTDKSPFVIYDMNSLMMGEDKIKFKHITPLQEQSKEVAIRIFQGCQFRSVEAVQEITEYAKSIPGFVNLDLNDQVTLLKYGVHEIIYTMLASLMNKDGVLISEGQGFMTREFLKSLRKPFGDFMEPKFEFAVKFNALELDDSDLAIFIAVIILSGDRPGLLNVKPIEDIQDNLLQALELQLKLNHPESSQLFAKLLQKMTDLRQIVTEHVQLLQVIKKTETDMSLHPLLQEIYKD
Experimental: (§1) In vitro PPAR agonist functional assays were performed by transiently transfecting GAL4-hPPARα-LBD or GAL4-hPPARγ-LBD constructs respectively into HEK293 (human embryonic kidney) cells stably expressing 5×GAL4RE-Luciferase. Agonist binding results in an increase in luciferase enzyme activity which can be monitored by measuring luminescence upon cell lysing and the addition of luciferin substrate. EC50 values (μM) for PPARα or γ agonist activity were calculated as the concentration of the test ligand (μM) required for the half-maximal activity in HEK293 cells. The efficacy of a test ligand is defined as its maximum activity as compared to the maximal activity of the primary standards, 100 μM fenofibric acid for PPARα and 1 μM rosiglitazone for PPARγ, reported as % efficacy.

human PPARα receptor = molecular target: T2, human PPARα receptor (Homo sapiens, UniProt Q07869); test: GAL4-hPPARα-LBD functional transactivation (luciferase) assay in HEK293 cells; format: cell-based; conditions: for Emax: HEK293, maximum activity vs maximal activity of 100 μM fenofibric acid, read-out: PPARα % efficacy
T2 construct: transiently transfecting GAL4-hPPARα-LBD or GAL4-hPPARγ-LBD constructs; GAL4 (fusion partner); expressed in transfected cells; host or cells: HEK293 cells stably expressing 5×GAL4RE-Luciferase
T2 sequence (Q07869 239-466 limits assumed): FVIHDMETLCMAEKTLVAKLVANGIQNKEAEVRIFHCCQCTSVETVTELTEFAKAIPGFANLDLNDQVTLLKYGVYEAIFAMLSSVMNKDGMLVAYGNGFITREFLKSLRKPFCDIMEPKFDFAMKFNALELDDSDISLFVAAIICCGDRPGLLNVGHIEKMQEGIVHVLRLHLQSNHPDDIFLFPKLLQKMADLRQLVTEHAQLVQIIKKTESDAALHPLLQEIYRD
Experimental: as §1

| SMILES | % Reduction in Plasma Total Cholesterol vs Vehicle-control group (high fat-fed hamster) [%] | % Reduction in Plasma Triglycerides vs Vehicle-control group (high fat-fed hamster) [%] | Emax (human PPARγ receptor) [%] | Emax (human PPARα receptor) [%] | EC50 (human PPARγ receptor; GAL4-hPPARγ-LBD in HEK293 cells, 5×GAL4RE-Luciferase) [nM] | EC50 (human PPARα receptor; GAL4-hPPARα-LBD in HEK293 cells, 5×GAL4RE-Luciferase) [nM] |
| --- | --- | --- | --- | --- | --- | --- |
| COC(=O)N(CC(=O)O)Cc1cccc(OCc2nc(-c3ccc(Cl)cc3)oc2C)c1 [Compound 1, Glycine, N-[[3-[[2-(4-chlorophenyl)-5-methyl-4-oxazolyl]methoxy]phenyl]methyl]-N-(methoxycarbonyl)-] | −38 | −77 | 83 | 81 |  |  |
| COC(=O)N(CC(=O)O)Cc1cc(OCc2nc(-c3ccc(Cl)cc3)oc2C)ccc1F [Compound 2] | −60 | −85 | 67 | 81 | 4510 ± 1310 | 4 ± 1 |
